Results on 24 molecules are retold here after publication PMC8653655, “The Design, Synthesis and Evaluation of Rho-kinase Inhibitory Activity of 4-aryl-thiazole-2-amines” (Iranian Journal of Pharmaceutical Research : IJPR, 2021).

In one series the target is T1, ROCK II (Homo sapiens, UniProt O75116).
T1 construct: purchased Cycle, Nagoya, Japan CY-1160
The series can be described thus: Enzyme-based ROCK II inhibitory activity assay (ELISA, Rho kinase assay kit CY-1160). The format is biochemical. Conditions: for inhibition at 10 µM: read-out: Inhibition of ROCKII (%); for IC50: read-out: IC50 against ROCK II. On the technique in general: ELISA stands for enzyme-linked immunosorbent assay.

Another series deals with ROCK. Also on record: method as in PMID 18638453. The following applies: compared with its in-vitro enzyme-based ROCK II activity; cited from earlier work.
For series [1] the following is noted: undesired pharmacokinetic properties, not suitable for non-topical administration; cited from earlier work.
Where [2] appears, read: full concentration-response plots.

Read-outs that look alike come from different tables or passages of the source.

T1 sequence (O75116 whole entry): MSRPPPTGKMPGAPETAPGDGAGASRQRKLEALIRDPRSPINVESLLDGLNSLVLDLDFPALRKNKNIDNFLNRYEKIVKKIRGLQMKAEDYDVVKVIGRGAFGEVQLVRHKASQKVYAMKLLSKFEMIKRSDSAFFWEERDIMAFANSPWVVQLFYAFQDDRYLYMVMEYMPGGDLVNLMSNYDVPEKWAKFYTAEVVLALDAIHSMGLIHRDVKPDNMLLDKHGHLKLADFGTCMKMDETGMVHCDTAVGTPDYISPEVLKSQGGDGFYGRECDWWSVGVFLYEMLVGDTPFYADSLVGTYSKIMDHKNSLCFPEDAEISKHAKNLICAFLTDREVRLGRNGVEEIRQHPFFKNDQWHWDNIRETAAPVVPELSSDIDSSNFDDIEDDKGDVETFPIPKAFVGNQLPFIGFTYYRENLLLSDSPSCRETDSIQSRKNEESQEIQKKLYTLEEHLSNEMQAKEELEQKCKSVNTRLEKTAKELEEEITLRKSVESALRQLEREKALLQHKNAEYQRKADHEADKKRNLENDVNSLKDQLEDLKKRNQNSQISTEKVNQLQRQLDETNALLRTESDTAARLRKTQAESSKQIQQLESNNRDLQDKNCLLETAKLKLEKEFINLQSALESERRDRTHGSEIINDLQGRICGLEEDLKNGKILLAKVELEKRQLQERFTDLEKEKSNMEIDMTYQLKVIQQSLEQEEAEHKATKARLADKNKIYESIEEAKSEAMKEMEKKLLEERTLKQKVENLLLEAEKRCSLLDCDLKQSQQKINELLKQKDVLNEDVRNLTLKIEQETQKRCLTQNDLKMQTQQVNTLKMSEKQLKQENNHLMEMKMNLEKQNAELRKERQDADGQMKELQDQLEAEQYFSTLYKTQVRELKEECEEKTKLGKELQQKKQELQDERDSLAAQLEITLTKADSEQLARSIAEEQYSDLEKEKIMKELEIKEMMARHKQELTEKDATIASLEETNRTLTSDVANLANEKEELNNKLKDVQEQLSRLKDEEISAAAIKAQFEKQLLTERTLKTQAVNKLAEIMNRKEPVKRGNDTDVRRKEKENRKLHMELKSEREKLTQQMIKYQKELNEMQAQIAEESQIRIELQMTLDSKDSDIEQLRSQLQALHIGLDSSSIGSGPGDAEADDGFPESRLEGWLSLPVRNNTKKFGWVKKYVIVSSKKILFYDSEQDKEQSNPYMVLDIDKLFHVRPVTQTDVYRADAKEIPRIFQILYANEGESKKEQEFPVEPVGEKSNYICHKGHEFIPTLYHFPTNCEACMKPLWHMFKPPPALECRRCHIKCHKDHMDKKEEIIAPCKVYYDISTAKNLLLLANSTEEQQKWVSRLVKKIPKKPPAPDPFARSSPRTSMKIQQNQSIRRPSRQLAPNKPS
Description for ROCK II: Enzyme-based ROCK II inhibitory activity studies
The enzyme-based ROCK II inhibitory activity assay was performed using the Rho kinase assay kit (CY-1160, Cycle, Nagoya, Japan). All operation was guided by the manufacturer’s instructions. Briefly, the compounds at 10 µM were pre-incubated in a system wherein ROCK II (0.02 ng/µL) phosphorylates the myosin-binding subunit (MBS) of kinase substrate pre-absorbed onto the microplate in the presence of Mg^2+ and ATP. Then, the system was washed after incubation at 30 ^◦C for 30 min. 100 µL of antibody was added to the wells and then incubated for 30 min at room temperature. 100 µL of substrate reagent and 100 µL stop solution were successively added to each well. The plates were read on the Viewlux in HTRF mode within 30 min.
All compounds were initially evaluated for their percentage inhibition against ROCK II with a ROCK II assay kit (CY-1160, Cycle, Japan).

In general, melting point refers to the temperature of the solid-liquid transition. By inhibition is commonly meant how much of the control response was suppressed. Turning to `Cc1ccc(C(=O)Nc2nc(-c3cccnc3)c(CN3CCOCC3)s2)cc1` [4a, 4-Methyl-N-(5-(morpholinomethyl)-4-(pyridin-3-yl)thiazol-2-yl) benzamide], the melting point was 198 to 199 °C. At ROCK II (compound concentration 10 µM), the inhibition at 10 µM came to 46.3%.

On to `Cc1ccc(C(=O)Nc2nc(-c3cccnc3)c(CN3CCN(C)CC3)s2)cc1` [4b, 4-Methyl-N-(5-((4-methylpiperazin-1-yl)methyl)-4-(pyridin-3-yl)thiazol-2-yl) benz-amide], for which the melting point is 180 to 182 °C. Moreover, the inhibition at 10 µM on ROCK II (compound concentration 10 µM) worked out at 32.7%.

For the molecule `Cc1ccc(C(=O)Nc2nc(-c3cccnc3)c(CN(C)C(C)C)s2)cc1` [4c, N-(5-((i-Propyl(methyl)amino)methyl)-4-(pyridin-3-yl)thiazol-2-yl)-4-methylbenzamide], on ROCK II (compound concentration 10 µM), the inhibition at 10 µM was found to be 32.8%.

As for `O=C(Nc1nc(-c2cccnc2)c(CN2CCOCC2)s1)c1ccc(Cl)c(Cl)c1` [4d, 3,4-Dichloro-N-(5-(morpholinomethyl)-4-(pyridin-3-yl)thiazol-2-yl) benzamide], the melting point lay in the range of 208 to 210 °C. In addition, the inhibition at 10 µM at ROCK II (compound concentration 10 µM) turned out to be 42.9%.

Turning to `CN1CCN(Cc2sc(NC(=O)c3ccc(Cl)c(Cl)c3)nc2-c2cccnc2)CC1` [4e, 3,4-Dichloro-N-(5-((4-methylpiperazin-1-yl)methyl)-4-(pyridin-3-yl)thiazol-2-yl) benzamide], the melting point fell in the range of 179 to 181 °C. Further, on ROCK II (compound concentration 10 µM), the inhibition at 10 µM was 27.9%.

`CC(C)N(C)Cc1sc(NC(=O)c2ccc(Cl)c(Cl)c2)nc1-c1cccnc1` [4f, 3,4-Dichloro-N-(5-((i-propyl(methyl)amino)methyl)-4-(pyridin-3-yl)thiazol-2-yl) benzamide] had a melting point of 171 to 172 °C. The inhibition at 10 µM at ROCK II (compound concentration 10 µM) was 34.6%.

`CN1CCN(Cc2sc(NC(=O)c3ccccc3)nc2-c2cccnc2)CC1` [4g, N-(5-((4-Methylpiperazin-1-yl)methyl)-4-(pyridin-3-yl)thiazol-2-yl) benzamide] had a melting point of 198 to 199 °C. Also, the inhibition at 10 µM at ROCK II (compound concentration 10 µM) was determined as 29.6%.

As to `CN(C)Cc1sc(NC(=O)c2ccncc2)nc1-c1cccnc1` [4h, N-(5-((dimethylamino)methyl)-4-(pyridin-3-yl)thiazol-2-yl) isonicotinamid], the melting point was 201 to 202 °C. The inhibition at 10 µM at ROCK II (compound concentration 10 µM) was found to be 35.3%.

The term IC50 denotes the midpoint of a concentration-inhibition curve. The molecule `O=C(Nc1nc(-c2cccnc2)c(CN2CCOCC2)s1)c1ccncc1` [4i, N-(5-(morpholinomethyl)-4-(pyridin-3-yl)thiazol-2-yl) isonicotinamide] returned a melting point of 185 to 187 °C. At ROCK II (compound concentration 10 µM), the inhibition at 10 µM was 51.1%. For the same molecule, the half-inhibitory concentration (IC50) on ROCK II (setting [2]) amounted to 9830 ± 1450 nM.

The molecule `CN(C)Cc1sc(NC(=O)C2COc3ccccc3O2)nc1-c1cccnc1` (stereo not shown) [4j, N-(5-((dimethylamino)methyl)-4-(pyridin-3-yl)thiazol-2-yl)-2,3-dihydrobenzo[b] [1,4] dioxine-2-carboxamide] came in with a melting point of 192 to 196 °C. For the same molecule, on ROCK II (compound concentration 10 µM), the inhibition at 10 µM stood at 68.1%. Further, the IC50 at ROCK II (setting [2]) came out at 960 ± 120 nM.

Molecule `O=C(Nc1nc(-c2cccnc2)c(CN2CCCC2)s1)C1COc2ccccc2O1` (stereo not shown) [4k, N-(4-(pyridin-3-yl)-5-(pyrrolidin-1-ylmethyl)thiazol-2-yl)-2,3-dihydrobenzo[b] [1,4] dioxine-2-carboxamide] yielded a melting point of 181 to 182 °C. The inhibition at 10 µM on ROCK II (compound concentration 10 µM) came to 61.3%. Moreover, the IC50 at ROCK II (setting [2]) was 1560 ± 230 nM.

`O=C(Nc1nc(-c2cccnc2)c(CN2CCOCC2)s1)C1COc2ccccc2O1` (stereo not shown) [4l, N-(5-(morpholinomethyl)-4-(pyridin-3-yl)thiazol-2-yl)-2,3-dihydrobenzo[b] [1,4] dioxine-2-carboxamide] yielded a melting point of 177 to 179 °C. The inhibition at 10 µM on ROCK II (compound concentration 10 µM) turned out to be 73.8%. For the same molecule, the concentration for half-maximal inhibition (IC50) at ROCK II (setting [2]) stood at 1020 ± 70 nM.

Turning to `Cc1ccc(C(=O)Nc2nc(-c3ccncc3)c(CN3CCOCC3)s2)cc1` [4m, 4-Methyl-N-(5-(morpholinomethyl)-4-(pyridin-4-yl)thiazol-2-yl) benzamide], the melting point lay in the range of 148 to 149 °C. On ROCK II (compound concentration 10 µM), the inhibition at 10 µM was 48.6%.

In turn, `Cc1ccc(C(=O)Nc2nc(-c3ccncc3)c(CN3CCN(C)CC3)s2)cc1` [4n, 4-Methyl-N-(5-((4-methylpiperazin-1-yl)methyl)-4-(pyridin-4-yl)thiazol-2-yl) benzamide] displayed a melting point of 148 to 150 °C. Moreover, on ROCK II (compound concentration 10 µM), the inhibition at 10 µM worked out at 42.4%.

For `CN1CCN(Cc2sc(NC(=O)c3ccc(Cl)c(Cl)c3)nc2-c2ccncc2)CC1` [4o, 3,4-Dichloro-N-(5-((4-methylpiperazin-1-yl)methyl)-4-(pyridin-4-yl)thiazol-2-yl) benzamide], the melting point lay in the range of 201 to 203 °C. For the same molecule, the inhibition at 10 µM on ROCK II (compound concentration 10 µM) stood at 44.8%.

In the case of `O=C(Nc1nc(-c2ccncc2)c(CN2CCOCC2)s1)c1ccc(Cl)c(Cl)c1` [4p, 3,4-Dichloro-N-(5-(morpholinomethyl)-4-(pyridin-4-yl)thiazol-2-yl) benzamide], the melting point is 163 to 164 °C. Further, the inhibition at 10 µM on ROCK II (compound concentration 10 µM) is 43.5%.

Molecule `O=C(Nc1nc(-c2ccncc2)c(CN2CCCC2)s1)c1ccncc1` [4r, N-(4-(Pyridin-4-yl)-5-(pyrrolidin-1-ylmethyl)thiazol-2-yl) isonicotinamide] showed a melting point of 192 to 195 °C. The inhibition at 10 µM on ROCK II (compound concentration 10 µM) came out at 47.6%.

`O=C(Nc1nc(-c2ccncc2)c(CN2CCOCC2)s1)c1ccncc1` [4s, N-(5-(morpholinomethyl)-4-(pyridin-4-yl)thiazol-2-yl) isonicotinamide] yielded a melting point of 175 to 178 °C. Besides, on ROCK II (compound concentration 10 µM), the inhibition at 10 µM came out at 58.1%. At ROCK II (setting [2]), the IC50 turned out to be 8560 nM.

`O=C(Nc1nc(-c2ccncc2)c(CN2CCOCC2)s1)c1cccnc1` [4t, N-(5-(Morpholinomethyl)-4-(pyridine-4-yl)thiazol-2-yl) nicotinamide] displayed a melting point of 178 to 180 °C. Besides, the inhibition at 10 µM at ROCK II (compound concentration 10 µM) was 52.2%. The 50% inhibitory concentration (IC50) at ROCK II (setting [2]) turned out to be 9120 ± 2460 nM.

Regarding `O=C(Nc1nc(-c2ccncc2)c(CN2CCCCC2)s1)c1cccnc1` [4u, N-(5-(Piperidin-1-ylmethyl)-4-(pyridin-4-yl)thiazol-2-yl) nicotinamide], the melting point lay within 169 to 171 °C. In addition, the inhibition at 10 µM on ROCK II (compound concentration 10 µM) came to 38.1%.

Molecule `O=C(Nc1nc(-c2ccncc2)c(CN2CCOCC2)s1)C1COc2ccccc2O1` (stereo not shown) [4v, N-(5-(morpholinomethyl)-4-(pyridin-4-yl)thiazol-2-yl)-2,3-dihydrobenzo[b] [1,4] dioxine-2-carboxamide] came in with a melting point of 178 to 180 °C. For the same molecule, the inhibition at 10 µM at ROCK II (compound concentration 10 µM) was 84.4%. For the same molecule, the 50% inhibitory concentration (IC50) at ROCK II (setting [2]) was 20 nM. Also, at ROCK II (value stated in text in nM), the half-inhibitory concentration (IC50) was 20 nM.

Regarding `O=C(Nc1nc(-c2ccncc2)cs1)C1COc2ccccc2O1` (stereo not shown) [II, reference compound], in the series with ROCK, the “potency in a cell-based assay” value is recorded as “much less potent”. Moreover, the inhibition at 10 µM on ROCK II (compound concentration 10 µM) came out at 91.3%. At ROCK II (setting [2]), the half-maximal inhibitory concentration (IC50) was 10 ± 3 nM.

As to `CN(C)CCOc1cc(-c2cn[nH]c2)ccc1NC(=O)[C@H]1Cc2ccccc2CN1` [I], in series [1], the bioavailability result is recorded as “low bioavailability” and the clearance entry is listed as “high clearance”.

With “N-(5-((4-Methylpiperazin-1-yl) methyl)-4- (pyridin-4-yl) thiazol-2-yl) isonicotinamide [4q]”, the “Inhibition of ROCKII (%)” value at ROCK II (compound concentration 10 µM) is listed as 48.2%.
